For one assay, the target named is T1, AChE (Electrophorus electricus, UniProt O42275).
T1 construct: purchased Sigma-Aldrich, Hamburg, Germany
The experiment in a line: biochemical. Format: biochemical. The conditions noted are these: for inhibition at 200 µM: 200 µM compound; for IC50: means ± SD of three experiments. On the procedure:
(§1) AChE and BChE inhibitory activity of the newly synthesized pyrrole-based compounds was measured using the microplate assay described by Ellman et al. with the modifications added by López et al.. The compounds were tested at concentrations between 0.01 and 200 μM. First, they were dissolved in phosphate buffer (PBS) (8 mM K2HPO4, 2.3 mM NaH2PO4, 0.15 M NaCl, pH 7.5), assisted by the addition of no more than 5% MeOH. Then, they were serially diluted with PBS to provide the concentration range needed. Acetylcholinesterase from Electrophorus electricus and butyrylcholinesterase from equine serum (Sigma-Aldrich, Hamburg, Germany) were used with a substrate solution of 5,5′-dithiobis(2-nitrobenzoic acid) (DTNB) with acetylthiocholine iodide (ATCI) or butyrylthiocholine iodide (BTCI), respectively (0.04 M Na2HPO4, 0.2 mM DTNB, 0.24 mM ATCI or BTCI, pH 7.5). A total of 50 μL of AChE or BChE (0.25 U/mL, in PBS) and 50 μL of the tested compound solution were added to the wells. Incubation of the plates was performed at room temperature for 30 min. Then, 100 μL of substrate solution was added to start the enzymatic reaction. […] Enzyme activity was calculated as an inhibition percentage compared to an assay including buffer instead of an inhibitor.

In assay [1] the target is T2, recombinant human MAO-A (hMAOA) (Homo sapiens, UniProt P21397).
T2 sequence (P21397 1-527): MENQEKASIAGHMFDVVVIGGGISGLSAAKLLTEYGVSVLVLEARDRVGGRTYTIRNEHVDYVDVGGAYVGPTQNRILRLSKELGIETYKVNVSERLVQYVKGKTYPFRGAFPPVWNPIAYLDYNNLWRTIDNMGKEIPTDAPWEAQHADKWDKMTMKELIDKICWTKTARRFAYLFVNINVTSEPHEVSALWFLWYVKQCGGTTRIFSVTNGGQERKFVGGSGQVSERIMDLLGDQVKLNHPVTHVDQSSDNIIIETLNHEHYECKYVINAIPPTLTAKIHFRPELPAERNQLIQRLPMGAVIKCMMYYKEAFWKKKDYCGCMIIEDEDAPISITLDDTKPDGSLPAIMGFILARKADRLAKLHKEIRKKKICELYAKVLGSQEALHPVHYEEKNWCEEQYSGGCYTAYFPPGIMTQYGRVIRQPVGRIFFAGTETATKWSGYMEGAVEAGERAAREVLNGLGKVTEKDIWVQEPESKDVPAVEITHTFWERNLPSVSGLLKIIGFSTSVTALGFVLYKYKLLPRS
The experiment in a line: MAO-A inhibition, fluorometric Amplex UltraRed assay. Format: biochemical. The conditions noted are these: for inhibition at 1 µM: 1 µM compound, read-out: Inhibition Activity 1 µM MAO-A; for IC50: means ± SD of three experiments, read-out: MAO-A IC50. The procedure: (§2) Monoamine oxidase (MAO) activity for both recombinant human MAO-A (hMAOA) and MAO-B (hMAOB) was assessed using a fluorometric assay based on the Amplex® UltraRed reagent. This method, originally reported by Bautista-Aguilera et al. and later adapted with minor changes by Kasabova-Angelova et al., detects hydrogen peroxide or peroxidase activity present in enzymes or biological samples. In this assay, Amplex® Red reacts in a 1:1 molar ratio with hydrogen peroxide in the presence of peroxidase, producing the red-fluorescent compound resorufin. Due to resorufin’s strong extinction coefficient (58,000 ± 5000 cm^−1·M^−1), measurements could be accurately taken using either fluorometric or spectrophotometric methods. […] The control conditions included the use of purified hMAOA or hMAOB in reaction buffer, enzyme solutions with hydrogen peroxide, and buffer alone. All the test compounds were initially prepared at a 1 µM final concentration. These compounds were combined with either hMAOA or hMAOB and loaded into a 96-well plate (with eight replicates per test compound), followed by incubation for 30 min at 37 °C in the dark. Subsequently, a 50 µL detection mix was added to each well. This mix contained Amplex® Red, horseradish peroxidase (HRP), and tyramine substrate, all prepared in a reaction buffer. As this enzymatic reaction proceeded continuously, the fluorescence signal was recorded every 30 min (at 0, 30, 60, 90, 120, and 150 min) to track enzymatic kinetics.

Another assay has as its target T3, BChE (Equus caballus, UniProt P81908).
T3 construct: purchased Sigma-Aldrich, Hamburg, Germany; host or cells: equine serum
The experiment in a line: biochemical. The conditions noted are these: for IC50: means ± SD of three experiments, read-out: BChE IC50; for inhibition at 200 µM: read-out: Inhibition Activity 200 µM BChE. On the procedure:
as §1

Assay [2] deals with T4, recombinant human MAO-B (hMAOB) (Homo sapiens, UniProt P27338).
T4 sequence (P27338 1-520): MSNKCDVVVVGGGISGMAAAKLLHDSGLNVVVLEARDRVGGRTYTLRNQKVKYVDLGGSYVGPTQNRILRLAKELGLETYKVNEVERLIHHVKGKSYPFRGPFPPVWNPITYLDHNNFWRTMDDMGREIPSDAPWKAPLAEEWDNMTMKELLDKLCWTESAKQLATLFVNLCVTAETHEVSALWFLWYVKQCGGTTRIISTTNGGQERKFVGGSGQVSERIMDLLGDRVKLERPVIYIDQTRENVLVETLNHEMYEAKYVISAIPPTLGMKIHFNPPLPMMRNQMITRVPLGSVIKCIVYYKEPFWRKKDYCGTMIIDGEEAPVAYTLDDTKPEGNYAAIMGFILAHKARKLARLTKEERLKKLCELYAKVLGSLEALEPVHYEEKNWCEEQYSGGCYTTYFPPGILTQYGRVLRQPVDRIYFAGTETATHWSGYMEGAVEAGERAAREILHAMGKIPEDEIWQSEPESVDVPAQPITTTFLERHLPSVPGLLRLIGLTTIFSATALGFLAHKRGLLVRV
The experiment in a line: biochemical. It is filed as biochemical. The conditions noted are these: for inhibition at 1 µM: 1 µM compound. On the procedure: as §2

Setting [3] is: means ± SD of three experiments.

Some results are limits rather than exact numbers.

Here are results for 13 compounds from article PMC12655551, “Design, Synthesis, and Evaluation of Pyrrole-Based Selective MAO-B Inhibitors with Additional AChE Inhibitory and Neuroprotective Properties Identified via Virtual Screening” (Pharmaceuticals, 2025).

T1 sequence (O42275 24-633): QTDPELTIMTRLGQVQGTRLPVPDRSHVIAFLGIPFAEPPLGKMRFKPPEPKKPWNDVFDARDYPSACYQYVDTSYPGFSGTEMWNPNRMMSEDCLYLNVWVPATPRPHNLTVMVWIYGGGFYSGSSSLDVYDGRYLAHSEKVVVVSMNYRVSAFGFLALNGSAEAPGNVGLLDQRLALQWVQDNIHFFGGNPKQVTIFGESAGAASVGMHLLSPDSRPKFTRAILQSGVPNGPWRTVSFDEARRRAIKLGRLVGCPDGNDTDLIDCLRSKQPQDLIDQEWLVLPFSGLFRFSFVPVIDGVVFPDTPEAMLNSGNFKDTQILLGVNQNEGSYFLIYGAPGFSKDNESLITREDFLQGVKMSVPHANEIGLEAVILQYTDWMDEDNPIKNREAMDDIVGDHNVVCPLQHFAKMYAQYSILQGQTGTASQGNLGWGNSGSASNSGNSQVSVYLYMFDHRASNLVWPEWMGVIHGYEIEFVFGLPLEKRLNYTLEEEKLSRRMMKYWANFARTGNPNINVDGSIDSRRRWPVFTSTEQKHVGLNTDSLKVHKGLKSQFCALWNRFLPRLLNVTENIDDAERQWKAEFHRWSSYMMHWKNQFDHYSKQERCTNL
T3 sequence (P81908 whole entry): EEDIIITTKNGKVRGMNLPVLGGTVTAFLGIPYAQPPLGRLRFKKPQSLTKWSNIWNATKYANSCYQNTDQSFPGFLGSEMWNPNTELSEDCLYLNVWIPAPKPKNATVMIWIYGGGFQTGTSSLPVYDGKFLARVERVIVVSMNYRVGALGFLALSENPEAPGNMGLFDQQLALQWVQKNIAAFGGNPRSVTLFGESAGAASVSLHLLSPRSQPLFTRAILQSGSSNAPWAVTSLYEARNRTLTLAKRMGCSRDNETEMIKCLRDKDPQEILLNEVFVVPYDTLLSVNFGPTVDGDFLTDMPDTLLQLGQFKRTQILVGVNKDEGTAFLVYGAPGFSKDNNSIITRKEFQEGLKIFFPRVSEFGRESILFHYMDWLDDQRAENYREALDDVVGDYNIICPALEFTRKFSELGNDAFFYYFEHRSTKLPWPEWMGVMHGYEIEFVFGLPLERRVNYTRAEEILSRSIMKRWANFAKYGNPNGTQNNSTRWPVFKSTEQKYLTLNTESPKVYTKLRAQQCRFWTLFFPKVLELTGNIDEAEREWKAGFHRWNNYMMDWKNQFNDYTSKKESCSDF

Regarding `Cc1ccc(C)n1C(Cc1ccc(O)cc1)C(=O)O` (centres unmarked) [EM-DC-20, 2-(2,5-dimethyl-1H-pyrrol-1-yl)-3-(4-hydroxyphenyl)propanoic acid], the inhibition at 200 µM against AChE and on BChE was 0% each time. Besides, the IC50 on AChE was over 200 µM; in assay [1] it was 0.6 ± 0.1 µM; at BChE, over 200 µM; in assay [2] (setting [3]) it was 0.62 ± 0.1 µM. Moreover, the inhibition at 1 µM in assay [1] worked out at 75 ± 6.4%; in assay [2], 75 ± 7.1%.

Consider `Cc1ccc(C)n1CC(O)c1ccc(O)cc1` (centres unmarked) [EM-DC-10, 4-[2-(2,5-dimethyl-1H-pyrrol-1-yl)-1-hydroxyethyl]phenol], for which the inhibition at 200 µM came out at 60.4 ± 1.05% against AChE and 87.2 ± 1.6% on BChE. In addition, the IC50 against AChE is 148 ± 5.91 µM; in assay [1], over 100 µM; at BChE it was 11.3 ± 0.87 µM; in assay [2] (setting [3]) it was over 100 µM. The inhibition at 1 µM in assay [1] stood at 99 ± 6.8%; in assay [2], 99 ± 7.1%.

For `CCC(C)Cn1c(C)ccc1C` (centres unmarked) [EM-DC-26, 2,5-dimethyl-1-(2-methylbutyl)-1H-pyrrole], the figures for the inhibition at 200 µM against AChE and on BChE were 12.8 ± 3.54% and 68.2 ± 1.6%, respectively. In addition, the IC50 is over 200 µM at AChE, over 100 µM in assay [1], 106.5 ± 0.7 µM on BChE and over 100 µM in assay [2] (setting [3]). The inhibition at 1 µM in assay [1] and in assay [2] was 97 ± 7.1% in each case.

`COc1ccc(C)cc1-n1c(C)ccc1C` [EM-DC-5, 1-(2-methoxy-5-methylphenyl)-2,5-dimethyl-1H-pyrrole]: the inhibition at 200 µM against AChE is 39.8 ± 2.64%; on BChE it was 74 ± 1.56%. The IC50 against AChE was over 200 µM; in assay [1], over 100 µM; on BChE, 73.8 ± 5.96 µM; in assay [2] (setting [3]), over 100 µM. Moreover, the inhibition at 1 µM amounted to 98 ± 7.3% in assay [1] and 99 ± 7.1% in assay [2].

In the case of `Cc1ccc(C)n1-c1ccncc1` [EM-DC-12, 4-(2,5-dimethyl-1H-pyrrol-1-yl)pyridine], the inhibition at 200 µM against AChE amounted to 65.7 ± 3.25%; on BChE, 73.2 ± 1.8%. Moreover, the IC50 against AChE is 103 ± 5.85 µM; in assay [1], 0.49 ± 0.1 µM; at BChE, 72.8 ± 2.53 µM; in assay [2] (setting [3]), 0.51 ± 0.1 µM. The inhibition at 1 µM in assay [1] turned out to be 70 ± 6.9%; in assay [2], 70 ± 7.1%. In assay [2] (setting [3]), the “MAO-B IC50” value is on record as “submicromolar range”.

Turning to `Cc1ccc(C)n1C(CS)C(=O)O` (centres unmarked) [EM-DC-15, 2-(2,5-dimethyl-1H-pyrrol-1-yl)-3-sulfanylpropanoic acid], the figures for the inhibition at 200 µM against AChE and at BChE were 63.9 ± 1.29% and 19.1 ± 2.47%, respectively. Besides, the IC50 is 131 ± 1.85 µM against AChE, 0.55 ± 0.1 µM in assay [1], over 200 µM on BChE and 0.53 ± 0.1 µM in assay [2] (setting [3]). Also, the inhibition at 1 µM in assay [1] worked out at 70 ± 7.2%; in assay [2], 70 ± 7.1%.

Regarding `Cc1ccc(C)n1-c1ccc2c(c1)OCO2` [EM-DC-6, 1-(2H-1,3-benzodioxol-5-yl)-2,5-dimethyl-1H-pyrrole], the inhibition at 200 µM against AChE was determined as 65 ± 1.14%; on BChE, 36.3 ± 3.54%. Further, the IC50 at AChE is 128 ± 1.87 µM; in assay [1] it was over 100 µM; on BChE, over 200 µM; in assay [2] (setting [3]), over 100 µM. In addition, the results for the inhibition at 1 µM in assay [1] and in assay [2] were 97 ± 7.1% and 98 ± 7.1%, respectively.

Turning to `Cc1ccc(C)n1CCc1ccc(Cl)cc1` [EM-DC-8, 1-[2-(4-chlorophenyl)ethyl]-2,5-dimethyl-1H-pyrrole], the results for the inhibition at 200 µM against AChE and at BChE were 31.1 ± 2.48% and 35.4 ± 2.91%, respectively. Besides, the IC50 was over 200 µM against AChE, over 100 µM in assay [1], over 200 µM at BChE and over 100 µM in assay [2] (setting [3]). Further, the figures for the inhibition at 1 µM in assay [1] and in assay [2] were 99 ± 7.3% and 99 ± 7.1%, respectively.

`Cc1ccc(C)n1C1CCN(Cc2ccccc2)CC1` [EM-DC-25, 1-benzyl-4-(2,5-dimethyl-1H-pyrrol-1-yl)piperidine]: the inhibition at 200 µM at AChE came to 74.8 ± 1.47%; on BChE, 69.8 ± 0.81%. The IC50 is 87.2 ± 5.7 µM on AChE, 0.33 ± 0.1 µM in assay [1], 104 ± 2.5 µM on BChE and over 100 µM in assay [2] (setting [3]). Besides, the inhibition at 1 µM worked out at 60 ± 7.1% in assay [1] and 98 ± 7.1% in assay [2].

For `Cc1ccc(C)n1C(CO)C(=O)O` (centres unmarked) [EM-DC-22, 2-(2,5-dimethyl-1H-pyrrol-1-yl)-3-hydroxypropanoic acid], the inhibition at 200 µM at AChE and on BChE was 0% throughout. Moreover, the IC50 was over 200 µM against AChE, over 100 µM in assay [1], over 200 µM at BChE and over 100 µM in assay [2] (setting [3]). Further, the figures for the inhibition at 1 µM in assay [1] and in assay [2] were 99 ± 7.2% and 99 ± 7.1%, respectively.

`Cc1ccc(C)n1-c1ccc(C(=O)O)cc1O` [EM-DC-17, 4-(2,5-dimethyl-1H-pyrrol-1-yl)-3-hydroxybenzoic acid]: the values for the inhibition at 200 µM at AChE and on BChE were 0% and 3.85 ± 2.99%, respectively. The IC50 was over 200 µM against AChE, over 100 µM in assay [1], over 200 µM at BChE and over 100 µM in assay [2] (setting [3]). Besides, the figures for the inhibition at 1 µM in assay [1] and in assay [2] were 99 ± 6.6% and 99 ± 7.1%, respectively.

On to `Cc1ccc(C)n1-c1ccc(O)cc1` [EM-DC-1, 4-(2,5-dimethyl-1H-pyrrol-1-yl)phenol], for which the inhibition at 200 µM against AChE amounted to 7.52 ± 2.07%; at BChE, 53.9 ± 2.14%. Also, the IC50 against AChE was over 200 µM; in assay [1], 0.32 ± 0.1 µM; at BChE it was 173 ± 7.3 µM; in assay [2] (setting [3]), over 100 µM. Also, the inhibition at 1 µM amounted to 55 ± 7.1% in assay [1] and 99 ± 7.1% in assay [2].

For the compound `Cc1ccc(C)n1-c1ccc(C(=O)O)cc1` [EM-DC-2, 4-(2,5-dimethyl-1H-pyrrol-1-yl)benzoic acid], the figures for the inhibition at 200 µM against AChE and on BChE were 93.6 ± 4.66% and 57.2 ± 0.58%, respectively. Also, the IC50 was 0.75 ± 0.06 µM against AChE, 0.43 ± 0.1 µM in assay [1] and 158 ± 11.8 µM on BChE. The results for the inhibition at 1 µM in assay [1] and in assay [2] were 75 ± 6.9% and 75 ± 7.1%, respectively.

Usually inhibition stands for the relative decrease from the control value, in per cent. Broadly, the IC50 is the point on the concentration scale where inhibition reaches its midpoint.
